In ChEMBL document CHEMBL3217624, “Probing androgen receptor co-factor selectivity profiles: a chemical tool to determine cross-talk between androgen receptor and -catenin in vivo” (Medchemcomm, 2013):
Active and inactive are the calls of the source. The rule behind the calls is not given here.

How the values were obtained:
Rattus norvegicus [1] = assay: Androgenic activity in ORX rat model assessed as reduction in plasma luteinizing hormone level at 30 mg/kg, sc qd after 11 days relative to sham control; type: functional, organism-based; design: dose 30 mg/kg
Rattus norvegicus [2] = assay: Androgenic activity in ORX rat model assessed as effect on seminal vesicle weight at 3 to 30 mg/kg, sc qd after 11 days relative to sham control; type: functional, organism-based
Androgen receptor [3] = molecular target: T1, Androgen receptor (Homo sapiens, UniProt P10275); assay: Displacement of [3H]mibolerone from human AR expressed in COS cells after 3.5 hrs by liquid scintillation counting analysis; type: cell-based
T1 sequence (P10275 whole entry): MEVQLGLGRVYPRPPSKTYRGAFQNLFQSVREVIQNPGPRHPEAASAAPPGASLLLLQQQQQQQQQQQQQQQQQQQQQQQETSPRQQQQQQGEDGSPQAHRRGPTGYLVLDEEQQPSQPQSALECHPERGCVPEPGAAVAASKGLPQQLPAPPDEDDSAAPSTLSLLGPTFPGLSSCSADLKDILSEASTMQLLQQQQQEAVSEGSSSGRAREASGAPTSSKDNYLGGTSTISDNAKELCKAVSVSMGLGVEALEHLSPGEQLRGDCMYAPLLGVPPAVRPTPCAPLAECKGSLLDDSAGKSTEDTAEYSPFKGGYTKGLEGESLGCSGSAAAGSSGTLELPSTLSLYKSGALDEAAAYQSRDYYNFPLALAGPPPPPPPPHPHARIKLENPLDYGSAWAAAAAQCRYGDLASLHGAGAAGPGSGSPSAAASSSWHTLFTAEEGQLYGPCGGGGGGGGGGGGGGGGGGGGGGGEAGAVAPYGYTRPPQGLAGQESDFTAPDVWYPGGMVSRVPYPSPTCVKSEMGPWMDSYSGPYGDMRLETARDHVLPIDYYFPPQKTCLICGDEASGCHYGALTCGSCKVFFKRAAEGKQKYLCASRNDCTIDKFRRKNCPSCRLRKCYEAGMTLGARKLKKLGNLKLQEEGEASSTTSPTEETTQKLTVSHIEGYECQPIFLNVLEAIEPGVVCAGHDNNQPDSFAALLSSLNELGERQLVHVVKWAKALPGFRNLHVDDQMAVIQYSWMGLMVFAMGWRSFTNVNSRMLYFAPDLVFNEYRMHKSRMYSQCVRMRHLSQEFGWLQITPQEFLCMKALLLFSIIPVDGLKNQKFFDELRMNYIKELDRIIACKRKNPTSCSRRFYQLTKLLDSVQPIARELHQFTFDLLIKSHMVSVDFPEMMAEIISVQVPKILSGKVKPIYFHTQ

Rattus norvegicus [4] = assay: Androgenic activity in ORX rat model assessed as reduction in plasma luteinizing hormone level at 10 mg/kg, sc qd after 11 days relative to sham control; type: functional, organism-based; design: dose 10 mg/kg
[5] = molecular target: T2, Androgen receptor (Homo sapiens) (UniProt P10275); assay: Agonist activity at human AR expressed in African green monkey CV1 cells assessed as supression of beta-catenin at 1000 nM after 17 hrs by Wnt 12xTcf-luciferase reporter gene assay relative to control; type: cell-based; settings: CV-1
T2 sequence (whole entry): T1 sequence (P10275 whole entry)

Rattus norvegicus [6] = assay: Androgenic activity in sc dosed ORX rat model assessed as increase in hepatic carnitine palmitoyltransferase1 expression after 11 days by RT-PCR analysis relative to sham control; type: functional
Androgen receptor [7] = molecular target: T1, Androgen receptor; assay: Agonist activity at human AR expressed in African green monkey CV1 cells after 17 hrs by ARE-driven luciferase reporter gene assay; type: cell-based, CV-1
Rattus norvegicus [8] = assay: Androgenic activity in ORX rat model assessed as reduction in plasma luteinizing hormone level at 3 mg/kg, sc qd after 11 days relative to sham control; type: functional, organism-based; design: dose 3 mg/kg
Rattus norvegicus [9] = assay: Androgenic activity in ORX rat model assessed as restoration of hepatic hydroxyacid oxidase2 expression at 10 to 30 mg/kg, sc qd after 11 days by RT-PCR analysis relative to sham control; type: functional; settings: dose mg/kg 10-30; route subcutaneous
Rattus norvegicus [10] = assay: Androgenic activity in ORX rat model assessed as increase in levator ani muscle weight at 1 mg/kg, sc qd after 11 days relative to sham control; type: functional, organism-based; design: dose 1 mg/kg
Rattus norvegicus [11] = assay: Androgenic activity in ORX rat model assessed as increase in hepatic carnitine palmitoyltransferase1 expression at 1 mg/kg, sc qd after 11 days by RT-PCR analysis relative to sham control; type: functional; settings: route subcutaneous
Rattus norvegicus [12] = assay: Androgenic activity in ORX rat model assessed as increase in prostate weight at 1 mg/kg, sc qd after 11 days relative to sham control; type: functional, organism-based; design: dose 1 mg/kg; settings: Prostate gland
Rattus norvegicus [13] = assay: Androgenic activity in ORX rat model assessed as restoration of hepatic hydroxyacid oxidase2 expression at 1 mg/kg, sc qd after 11 days by RT-PCR analysis relative to sham control; type: functional, organism-based; design: dose 1 mg/kg
Rattus norvegicus [14] = assay: Androgenic activity in ORX rat model assessed as reduction in plasma luteinizing hormone level at 1 mg/kg, sc qd after 11 days relative to sham control; type: functional, organism-based; design: dose 1 mg/kg
Rattus norvegicus [15] = assay: Androgenic activity in ORX rat model assessed as increase in seminal vesicle weight at 1 mg/kg, sc qd after 11 days relative to sham control; type: functional, organism-based; design: dose 1 mg/kg

In the case of CN1C(=O)C(F)=C[C@]2(C)[C@H]3CC[C@]4(C)[C@@H](C(=O)NCc5nc6cccnc6[nH]5)CC[C@H]4[C@@H]3CC[C@@H]12 [MK-0773], the Activity (Rattus norvegicus [1]) is reported as “inactive”, the Activity (Rattus norvegicus [2]) is reported as “inactive” and the IC50 (Androgen receptor [3]) is reported as 196 nM. The Activity (Rattus norvegicus [4]) was “Active”, the Activity [5] was 32% and the Activity (Rattus norvegicus [6]) was “Dose-dependent effect”. For the same molecule, the “fold change (FC)” value (Rattus norvegicus [6]) was 2, the EC50 (Androgen receptor [7]) was 144 nM and the Activity (Rattus norvegicus [8]) was “inactive”. For the same molecule, the “fold change (FC)” value (Rattus norvegicus [9]) was 2.5.
In the case of CCC(=O)O[C@H]1CC[C@H]2[C@@H]3CCC4=CC(=O)CC[C@]4(C)[C@H]3CC[C@]12C [TESTOSTERONE PROPIONATE], the Activity (Rattus norvegicus [10]) is reported as “Active”, the IC50 (Androgen receptor [3]) is reported as 18 nM and the “fold change (FC)” value (Rattus norvegicus [11]) is reported as 2. For the same molecule, the Activity (Rattus norvegicus [12]) was “Active”, the Activity (Rattus norvegicus [13]) was “Active” and the Activity (Rattus norvegicus [14]) was “Active”. For the same molecule, the Activity (Rattus norvegicus [15]) was “Active”.
